“And” between values parts separate entries of the source, which are not always exact repeats. Equal entries are not always repeated. Numbers after ± are expanded uncertainties.
Conditions: Liquid

## ClCc1nc2ccccc2o1 [2-(chloromethyl)-1,3-benzoxazole]
347.65 K, Ebulliometric method (Recirculating still)
  vapor or sublimation pressure: 0.08 ± 0.06 kPa
357.1 K, Ebulliometric method (Recirculating still)
  vapor or sublimation pressure: 0.16 ± 0.06 kPa
368.45 K, Ebulliometric method (Recirculating still)
  vapor or sublimation pressure: 0.32 ± 0.07 kPa
375.15 K, Ebulliometric method (Recirculating still)
  vapor or sublimation pressure: 0.59 ± 0.08 kPa
378.2 K, Ebulliometric method (Recirculating still)
  vapor or sublimation pressure: 0.69 ± 0.09 kPa
383.2 K, Ebulliometric method (Recirculating still)
  vapor or sublimation pressure: 0.96 ± 0.12 kPa
388.15 K, Ebulliometric method (Recirculating still)
  vapor or sublimation pressure: 1.39 ± 0.12 kPa
393.5 K, Ebulliometric method (Recirculating still)
  vapor or sublimation pressure: 1.76 ± 0.44 kPa
393.85 K, Ebulliometric method (Recirculating still)
  vapor or sublimation pressure: 1.87 ± 0.44 kPa
395.6 K, Ebulliometric method (Recirculating still)
  vapor or sublimation pressure: 2.03 ± 0.2 kPa
400.3 K, Ebulliometric method (Recirculating still)
  vapor or sublimation pressure: 2.72 ± 0.19 kPa
405.25 K, Ebulliometric method (Recirculating still)
  vapor or sublimation pressure: 3.28 ± 0.25 kPa
408.35 K, Ebulliometric method (Recirculating still)
  vapor or sublimation pressure: 4.19 ± 0.34 kPa
411.9 K, Ebulliometric method (Recirculating still)
  vapor or sublimation pressure: 4.88 ± 0.34 kPa
417.3 K, Ebulliometric method (Recirculating still)
  vapor or sublimation pressure: 6.32 ± 1.7 kPa
418.1 K, Ebulliometric method (Recirculating still)
  vapor or sublimation pressure: 7.29 ± 1.4 kPa
418.85 K, Ebulliometric method (Recirculating still)
  vapor or sublimation pressure: 7.91 ± 1.2 kPa
418.9 K, Ebulliometric method (Recirculating still)
  vapor or sublimation pressure: 7.92 ± 0.73 kPa
422.05 K, Ebulliometric method (Recirculating still)
  vapor or sublimation pressure: 9.41 ± 0.66 kPa
423.2 K, Ebulliometric method (Recirculating still)
  vapor or sublimation pressure: 9.92 ± 0.73 kPa and 10.59 ± 0.75 kPa
424.2 K, Ebulliometric method (Recirculating still)
  vapor or sublimation pressure: 10.53 ± 0.9 kPa
424.55 K, Ebulliometric method (Recirculating still)
  vapor or sublimation pressure: 10.8 ± 1.1 kPa

## Clc1ccccc1 [chlorobenzene]
330.5 K
  vapor or sublimation pressure: 7.92 ± 0.55 kPa
337.4 K
  vapor or sublimation pressure: 10.59 ± 0.55 kPa
